In PMC8546428, “Convergent olfactory trace amine-associated receptors detect biogenic polyamines with distinct motifs via a conserved binding site” (The Journal of Biological Chemistry, 2021):
Positions count from the first letter of the chain named.

Tests used:
sTAAR365 Y7.43L = sTAAR365 Y7.43L (Petromyzon marinus, UniProt A0A678XMK4, Y299L); assay: cell-based
sTAAR365 E7.36Q = sTAAR365 E7.36Q (Petromyzon marinus, UniProt A0A678XMK4, E292Q); assay: cell-based
sTAAR365 T7.42V = biological target: T1, sTAAR365 T7.42V (Petromyzon marinus, UniProt A0A678XMK4, T298V); assay: cell-based
T1 sequence (A0A678XMK4 1-365 T298V): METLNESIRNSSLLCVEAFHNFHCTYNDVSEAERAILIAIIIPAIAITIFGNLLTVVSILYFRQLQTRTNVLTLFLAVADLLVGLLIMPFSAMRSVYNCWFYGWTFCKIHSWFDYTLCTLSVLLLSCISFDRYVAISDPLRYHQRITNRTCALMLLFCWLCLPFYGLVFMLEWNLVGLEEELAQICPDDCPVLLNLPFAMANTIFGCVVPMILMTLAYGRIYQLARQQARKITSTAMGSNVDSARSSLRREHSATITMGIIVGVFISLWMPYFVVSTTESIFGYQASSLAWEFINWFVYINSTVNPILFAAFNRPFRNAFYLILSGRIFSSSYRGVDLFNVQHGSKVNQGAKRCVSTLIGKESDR

sTAAR365 D3.32E [1] = biological target: T2, sTAAR365 D3.32E (Petromyzon marinus, UniProt A0A678XMK4, D114E); assay: cell-based
T2 sequence (A0A678XMK4 1-365 D114E): T1 sequence (A0A678XMK4 1-365 T298V) with D114E, V298T

sTAAR365 T7.42S = sTAAR365 T7.42S (Petromyzon marinus, UniProt A0A678XMK4, T298S); assay: cell-based
sTAAR365 T7.42S, sequence (A0A678XMK4 whole entry T298S): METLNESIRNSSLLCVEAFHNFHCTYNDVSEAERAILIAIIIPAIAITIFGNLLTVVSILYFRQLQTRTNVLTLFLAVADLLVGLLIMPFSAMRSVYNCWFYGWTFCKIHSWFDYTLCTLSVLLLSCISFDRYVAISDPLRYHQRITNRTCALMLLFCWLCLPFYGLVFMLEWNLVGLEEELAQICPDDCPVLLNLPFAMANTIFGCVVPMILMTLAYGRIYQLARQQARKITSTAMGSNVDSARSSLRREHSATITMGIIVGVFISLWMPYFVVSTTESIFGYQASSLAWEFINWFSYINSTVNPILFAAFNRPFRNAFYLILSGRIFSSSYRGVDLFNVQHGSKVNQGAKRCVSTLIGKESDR

Rat TAAR9 = biological target: T3, Rat TAAR9 (Rattus norvegicus, UniProt Q923Y6); assay: CRE-luciferase reporter assay in Hana3A; assay type: cell-based; conditions: rat TAAR9, ligand 1 mM, Fig. 1B
T3 construct: expressed in transfected cells; host or cells: Hana3A (HEK293-derived)
T3 sequence (Q923Y6 1-338): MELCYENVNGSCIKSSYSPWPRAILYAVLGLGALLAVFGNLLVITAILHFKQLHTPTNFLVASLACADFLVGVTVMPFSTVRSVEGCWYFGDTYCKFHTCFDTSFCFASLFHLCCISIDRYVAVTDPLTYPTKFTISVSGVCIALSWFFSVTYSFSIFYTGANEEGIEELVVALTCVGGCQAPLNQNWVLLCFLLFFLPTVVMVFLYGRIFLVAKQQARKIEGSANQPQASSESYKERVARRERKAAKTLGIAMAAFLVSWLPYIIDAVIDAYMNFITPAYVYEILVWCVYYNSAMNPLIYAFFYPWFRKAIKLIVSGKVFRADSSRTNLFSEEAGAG
Procedure: We examined the response of TAAR9s from rat, human, hamster, and rabbit to the stimulation of 1 mM amines using a well-established cAMP response element (CRE)-driven luciferase reporter assay based on Golf-mediated cAMP signal transduction ([5], [24]). In addition to the four mTAAR9 ligands, we included putrescine, which is also a polyamine and precursor of spermine/spermidine biosynthesis.
Mammalian TAAR9 plasmids were transfected into Hana3A cells along with a cAMP-dependent luciferase reporter plasmid (CRE-Luc). Transfected cells were incubated with tested ligands, and luciferase activity was quantified with a […] substrate as a reporter for Golf-mediated TAAR activation. Luciferase activity was indicated by the luminescence value and normalized as a fold-increase over the response to the vehicle stimuli (mean ± S.D., n = 3). […] B, Hana3A cells expressing mouse, rat, human, cat, hamster, and rabbit TAAR9 were incubated with either vehicle or tested ligands (1 mM) and assayed for reporter activity. C, concentration-dependent luciferase activity in Hana3A cells expressing mouse, rat, and cat TAAR9 receptors stimulated with cadaverine, spermidine, and spermine.
The firefly luciferase and renilla luciferase activity was measured with a BioTek microplate reader following manufacturer’s instructions.

sTAAR365 Y6.51L = biological target: T4, sTAAR365 Y6.51L (Petromyzon marinus, UniProt A0A678XMK4, Y272L); assay: cell-based
T4 sequence (A0A678XMK4 1-365 Y272L): T1 sequence (A0A678XMK4 1-365 T298V) with Y272L, V298T

sTAAR365 Y7.43F = sTAAR365 Y7.43F (Petromyzon marinus, UniProt A0A678XMK4, Y299F); assay: cell-based
sTAAR365 Y7.43F, sequence (A0A678XMK4 whole entry Y299F): as the sequence (A0A678XMK4 whole entry T298S) above, with S298T, Y299F counted along it

sTAAR365 D3.32E [2] = biological target: T2, sTAAR365 D3.32E
sTAAR365 W7.40F = sTAAR365 W7.40F (Petromyzon marinus, UniProt A0A678XMK4, W296F); assay: cell-based
sTAAR365 W7.40F, sequence (A0A678XMK4 whole entry W296F): as the sequence (A0A678XMK4 whole entry T298S) above, with W296F, S298T counted along it

sTAAR365 Y7.43L, sequence (A0A678XMK4 whole entry Y299L): as the sequence (A0A678XMK4 whole entry T298S) above, with S298T, Y299L counted along it
sTAAR365 E7.36Q, sequence (A0A678XMK4 whole entry E292Q): as the sequence (A0A678XMK4 whole entry T298S) above, with E292Q, S298T counted along it

Row | Structure (SMILES) | EC50 (sTAAR365 Y7.43L) [µM] | EC50 (sTAAR365 E7.36Q) [nM] | EC50 (sTAAR365 T7.42V) [µM] | EC50 (sTAAR365 D3.32E [1]) [µM] | EC50 (sTAAR365 T7.42S) [µM] | reporter activity (activation of TAAR9) (Rat TAAR9) | EC50 (sTAAR365 Y6.51L) [µM] | EC50 (sTAAR365 Y7.43F) [µM] | Hill slope of concentration-response curve (sTAAR365 D3.32E [2]) | increase of EC50 vs wild-type sTAAR365 (sTAAR365 D3.32E [2]) | EC50 (sTAAR365 W7.40F) [nM]
1 | NCCCCCN [cadaverine] | 1 ± 0.2 | 60 ± 11 | 9 ± 2 | 14 ± 0.5 | 0.126 ± 0.013 | maximum responses | > 100 | 2 ± 0.2 | 1.44 | three | 223 ± 37
2 | NCCCCN [putrescine] | > 1000 | – | > 500 | > 500 | – | not activated | – | > 1000 | – | one | > 500000
3 | NCCCNCCCCNCCCN [spermine] | – | > 500000 | – | – | 64 ± 7 | maximum responses | > 500 | – | – | – | –
